{"source": "ChEMBL document CHEMBL3046521", "about": "“Synthesis and antitumor activity of (4-hydroxyphenyl)[5-substituted alkyl/aryl)-2-thioxo-1,3,4-thiadiazol-3-yl]methanone and [(3,4-disubstituted)-1,3-thiazol-2ylidene]-4-hydroxybenzohydrazide” (2011)", "type_in_all_cases": "functional", "key": {"[1]": {"system": "PC-3", "experiment": "Cytotoxicity against Homo sapiens (human) PC3 cells after 48 hr by sulforhodamine B assay", "details": "PC-3, 48 h; for TGI: read-out: pTGI (converted)"}, "[2]": {"system": "Malme-3M", "experiment": "Cytotoxicity against Homo sapiens (human) MALME-3M cells after 48 hr by sulforhodamine B assay"}, "[3]": {"system": "HOP-92", "experiment": "Cytotoxicity against Homo sapiens (human) HOP92 cells after 48 hr by sulforhodamine B assay", "details": "HOP-92, 48 h; for TGI: read-out: pTGI (converted)"}, "[4]": {"system": "OVCAR-3", "experiment": "Cytotoxicity against Homo sapiens (human) OVCAR3 cells after 48 hr by sulforhodamine B assay", "details": "OVCAR-3, 48 h"}, "[5]": {"system": "HCT-116", "experiment": "Cytotoxicity against Homo sapiens (human) HCT116 cells after 48 hr by sulforhodamine B assay", "details": "HCT-116, 48 h"}, "[6]": {"system": "SF-295", "experiment": "Cytotoxicity against Homo sapiens (human) SF295 cells after 48 hr by sulforhodamine B assay", "details": "SF-295, 48 h; for TGI: read-out: pTGI (converted)"}, "[7]": {"experiment": "Anticancer activity in Homo sapiens (human) NCI-ADR-RES cells assessed as cell growth at 10^-5 M after 48 hr by SRB assay", "details": "read-out: Activity"}, "[8]": {"system": "CAKI-1", "experiment": "Cytotoxicity against Homo sapiens (human) Caki1 cells after 48 hr by sulforhodamine B assay", "details": "CAKI-1, 48 h; for TGI: read-out: pTGI (converted)"}, "[9]": {"system": "HL-60(TB)", "experiment": "Cytotoxicity against Homo sapiens (human) HL-60(TB) cells after 48 hr by sulforhodamine B assay", "details": "HL-60, 48 h; for CC50: read-out: pLC50 (the source's name) (converted); for TGI: read-out: pTGI (converted)"}, "[10]": {"system": "MCF7", "experiment": "Cytotoxicity against Homo sapiens (human) MCF7 cells after 48 hr by sulforhodamine B assay", "details": "MCF7, 48 h"}, "[11]": {"system": "MDA-MB-468", "experiment": "Cytotoxicity against Homo sapiens (human) MDA-MB-468 cells after 48 hr by sulforhodamine B assay", "details": "MDA-MB-468, 48 h"}, "[12]": {"experiment": "Cytotoxicity against Homo sapiens (human) NCI-ADR-RES cells after 48 hr by sulforhodamine B assay"}, "[13]": {"system": "KM12", "experiment": "Cytotoxicity against Homo sapiens (human) KM12 cells after 48 hr by sulforhodamine B assay", "details": "KM12, 48 h"}, "[14]": {"system": "HCC 2998", "experiment": "Anticancer activity in Homo sapiens (human) HCC2998 cells assessed as cell growth at 10^-5 M after 48 hr by SRB assay", "details": "HCC 2998, 48 h, read-out: Activity"}, "[15]": {"system": "MDA-MB-435", "experiment": "Cytotoxicity against Homo sapiens (human) MDA-MB-435 cells after 48 hr by sulforhodamine B assay", "details": "MDA-MB-435, 48 h"}, "[16]": {"system": "CCRF-CEM", "experiment": "Cytotoxicity against Homo sapiens (human) CCRF-CEM cells after 48 hr by sulforhodamine B assay"}, "[17]": {"system": "NCI-H522", "experiment": "Cytotoxicity against Homo sapiens (human) NCI-H522 cells after 48 hr by sulforhodamine B assay", "details": "NCI-H522, 48 h"}, "[18]": {"system": "HCC 2998", "experiment": "Cytotoxicity against Homo sapiens (human) HCC2998 cells after 48 hr by sulforhodamine B assay", "details": "HCC 2998, 48 h"}, "[19]": {"system": "CAKI-1", "experiment": "Anticancer activity in Homo sapiens (human) Caki1 cells assessed as cell growth at 10^-5 M after 48 hr by SRB assay", "details": "CAKI-1, 48 h, read-out: Activity"}, "[20]": {"system": "LOX IMVI", "experiment": "Anticancer activity in Homo sapiens (human) LOXIMVI cells assessed as cell growth at 10^-5 M after 48 hr by SRB assay", "details": "read-out: Activity"}}}
{"smiles": "COc1ccc(-n2c(-c3ccc(Cl)cc3)cs/c2=N\\NC(=O)c2ccc(O)cc2)c(OC)c1", "values": [{"measurement": "GI50", "setting": "[1]", "value": 18.2, "unit": "µM"}, {"measurement": "LC50", "setting": "[1]", "value": "> 100", "unit": "µM"}, {"measurement": "TGI", "setting": "[1]", "value": "> 100", "unit": "µM"}, {"measurement": "GI50", "setting": "[2]", "value": 25.1, "unit": "µM"}, {"measurement": "LC50", "setting": "[2]", "value": "> 100", "unit": "µM"}, {"measurement": "TGI", "setting": "[2]; read-out: pTGI (converted)", "value": 91.2, "unit": "µM"}, {"measurement": "GI50", "setting": "[3]", "value": 14.5, "unit": "µM"}, {"measurement": "LC50", "setting": "[3]", "value": "> 100", "unit": "µM"}, {"measurement": "TGI", "setting": "[3]", "value": 64.6, "unit": "µM"}, {"measurement": "GI50", "setting": "[4]", "value": 26.9, "unit": "µM"}, {"measurement": "LC50", "setting": "[4]", "value": "> 100", "unit": "µM"}, {"measurement": "TGI", "setting": "[4]; read-out: pTGI (converted)", "value": 83.2, "unit": "µM"}, {"measurement": "GI50", "setting": "[5]", "value": 27.5, "unit": "µM"}, {"measurement": "LC50", "setting": "[5]", "value": "> 100", "unit": "µM"}, {"measurement": "TGI", "setting": "[5]; read-out: pTGI (converted)", "value": "> 100", "unit": "µM"}, {"measurement": "GI50", "setting": "[6]", "value": 27.5, "unit": "µM"}, {"measurement": "LC50", "setting": "[6]", "value": "> 100", "unit": "µM"}, {"measurement": "TGI", "setting": "[6]", "value": "> 100", "unit": "µM"}, {"measurement": "growth at 10 µM", "setting": "[7]", "value": -1.18, "unit": "%"}, {"measurement": "GI50", "setting": "[8]", "value": 22.9, "unit": "µM"}, {"measurement": "LC50", "setting": "[8]", "value": "> 100", "unit": "µM"}, {"measurement": "TGI", "setting": "[8]", "value": "> 100", "unit": "µM"}, {"measurement": "GI50", "setting": "[9]", "value": 17.8, "unit": "µM"}, {"measurement": "CC50", "setting": "[9]", "value": "> 100", "unit": "µM"}, {"measurement": "TGI", "setting": "[9]", "value": 81.3, "unit": "µM"}, {"measurement": "GI50", "setting": "[10]", "value": 25.1, "unit": "µM"}, {"measurement": "LC50", "setting": "[10]", "value": "> 100", "unit": "µM"}, {"measurement": "TGI", "setting": "[10]; read-out: pTGI (converted)", "value": "> 100", "unit": "µM"}]}
{"smiles": "O=C(N/N=c1\\scc(-c2ccc(Cl)cc2)n1-c1ccc(Cl)cc1Cl)c1ccc(O)cc1", "values": [{"measurement": "GI50", "setting": "[1]", "value": 3.39, "unit": "µM"}, {"measurement": "LC50", "setting": "[1]", "value": "> 100", "unit": "µM"}, {"measurement": "TGI", "setting": "[1]", "value": "> 100", "unit": "µM"}, {"measurement": "GI50", "setting": "[11]", "value": 3.89, "unit": "µM"}, {"measurement": "LC50", "setting": "[11]", "value": "> 100", "unit": "µM"}, {"measurement": "TGI", "setting": "[11]; read-out: pTGI (converted)", "value": "> 100", "unit": "µM"}, {"measurement": "GI50", "setting": "[3]", "value": 2.95, "unit": "µM"}, {"measurement": "LC50", "setting": "[3]", "value": 49, "unit": "µM"}, {"measurement": "TGI", "setting": "[3]", "value": 7.59, "unit": "µM"}, {"measurement": "GI50", "setting": "[12]", "value": 2950, "unit": "nM"}, {"measurement": "LC50", "setting": "[12]", "value": "> 100", "unit": "µM"}, {"measurement": "TGI", "setting": "[12]; read-out: pTGI (converted)", "value": 8.32, "unit": "µM"}, {"measurement": "GI50", "setting": "[13]", "value": 2630, "unit": "nM"}, {"measurement": "LC50", "setting": "[13]", "value": 87.1, "unit": "µM"}, {"measurement": "TGI", "setting": "[13]; read-out: pTGI (converted)", "value": 8.51, "unit": "µM"}, {"measurement": "growth at 10 µM", "setting": "[14]", "value": -1.56, "unit": "%"}, {"measurement": "GI50", "setting": "[6]", "value": 2.82, "unit": "µM"}, {"measurement": "LC50", "setting": "[6]", "value": "> 100", "unit": "µM"}, {"measurement": "TGI", "setting": "[6]", "value": 9.77, "unit": "µM"}, {"measurement": "GI50", "setting": "[15]", "value": 2880, "unit": "nM"}, {"measurement": "LC50", "setting": "[15]", "value": "> 100", "unit": "µM"}, {"measurement": "TGI", "setting": "[15]; read-out: pTGI (converted)", "value": 22.9, "unit": "µM"}, {"measurement": "GI50", "setting": "[16]", "value": 977, "unit": "nM"}, {"measurement": "LC50", "setting": "[16]", "value": "> 100", "unit": "µM"}, {"measurement": "TGI", "setting": "[16]; read-out: pTGI", "value": "> 100", "unit": "µM"}, {"measurement": "GI50", "setting": "[8]", "value": 3.31, "unit": "µM"}, {"measurement": "LC50", "setting": "[8]", "value": "> 100", "unit": "µM"}, {"measurement": "TGI", "setting": "[8]", "value": 52.5, "unit": "µM"}, {"measurement": "GI50", "setting": "[17]", "value": 2570, "unit": "nM"}, {"measurement": "LC50", "setting": "[17]", "value": "> 100", "unit": "µM"}, {"measurement": "TGI", "setting": "[17]; read-out: pTGI (converted)", "value": 20, "unit": "µM"}, {"measurement": "GI50", "setting": "[18]", "value": 1950, "unit": "nM"}, {"measurement": "LC50", "setting": "[18]", "value": 53.7, "unit": "µM"}, {"measurement": "TGI", "setting": "[18]; read-out: pTGI (converted)", "value": 5.25, "unit": "µM"}, {"measurement": "GI50", "setting": "[9]", "value": 0.302, "unit": "µM"}, {"measurement": "CC50", "setting": "[9]", "value": "> 100", "unit": "µM"}, {"measurement": "TGI", "setting": "[9]", "value": 38, "unit": "µM"}]}
{"smiles": "COc1ccc(-c2nn(C(=O)c3ccc(O)cc3)c(=S)s2)cc1", "values": [{"measurement": "growth at 10 µM", "setting": "[19]", "value": 68, "unit": "%"}]}
{"smiles": "O=C(c1ccc(O)cc1)n1nc(-c2ccc(O)cc2)sc1=S", "values": [{"measurement": "growth at 10 µM", "setting": "[20]", "value": -0.61, "unit": "%"}]}
